29 compounds from ChEMBL document CHEMBL1132890, “Prediction of drug solubility from Monte Carlo simulations” (Bioorg Med Chem Lett, 2000) can be followed below.

For this data set the following is noted: buffer.

With `NC(=O)c1ccccc1` [BENZAMIDE], the “Log S” value is given as -0.96.

With `CC(=O)CC(c1ccccc1)c1c(O)c2ccccc2oc1=O` (centres undefined) [WARFARIN], the “Log S” value is on record as -4.26.

With `c1ccc2ncccc2c1` [QUINOLINE], the “Log S” value was -1.3.

As for `O=C1Nc2ccc(Cl)cc2C(c2ccccc2Cl)=NC1O` (centres undefined) [LORAZEPAM], the “Log S” value was -3.6.

For the compound `Oc1cccc(Cl)c1Cl`, the “Log S” value is -1.3.

Consider `COC(C)=O` [ACETIC ACID METHYL ESTER], for which the “Log S” value is reported as 0.46.

With `COC1=CC(=O)C[C@@H](C)[C@]12Oc1c(Cl)c(OC)cc(OC)c1C2=O` [GRISEOFULVIN], the “Log S” value is -4.07.

Regarding `c1ccc(-c2ccccc2)cc1` [BIPHENYL], the “Log S” value is reported as -4.35.

In the case of `C=C(C)C1CC=C(C)C(=O)C1` (centres undefined) [CARVONE], the “Log S” value was -2.06.

As for `CC/C(=C(/CC)c1ccc(O)cc1)c1ccc(O)cc1` [DIETHYLSTILBESTROL], the “Log S” value is -4.07.

For `Nc1ccccc1` [ANILINE], the “Log S” value is -0.41.

On to `O=C(O)Cc1ccccc1Oc1ccc(Cl)cc1Cl` [FENCLOFENAC], for which the “Log S” value was -3.85.

With `O=C(O)c1ccccc1` [BENZOIC ACID], the “Log S” value was -1.55.

For `C1COCCN1` [MORPHOLINE], the “Log S” value worked out at 1.97.

For `O=[N+]([O-])c1ccccc1` [NITROBENZENE], the “Log S” value is recorded as -1.8.

With `CCCCCC` [HEXANE], the “Log S” value was -3.84.

Take `COc1ccccc1` [ANISOLE]: the “Log S” value was -1.85.

For `CN(C)CCCN1c2ccccc2Sc2ccc(Cl)cc21` [CHLORPROMAZINE], the “Log S” value was -5.1.

`COC(=O)[C@@H]1C2CC[C@@H](C[C@@H]1OC(=O)c1ccccc1)N2C` (single isomer, unassigned) [COCAINE]: the “Log S” value was -2.25.

Consider `Cc1ccccc1` [TOLUENE], for which the “Log S” value is recorded as -2.21.

As for `Clc1c(Cl)c(Cl)c(-c2ccccc2)c(Cl)c1Cl`, the “Log S” value is -7.78.

With `O=C1CN(/N=C/c2ccc([N+](=O)[O-])o2)C(=O)N1` [NITROFURANTOIN], the “Log S” value is -3.38.

As to `CCO` [ALCOHOL], the “Log S” value came to 1.1.

`c1ccc2c(c1)oc1ccccc12` [DIBENZOFURAN]: the “Log S” value is given as -4.6.

Take `O=C(O)c1ccccc1O` [SALICYLIC ACID]: the “Log S” value is recorded as -1.82.

Take `CCOC(=O)NCCOc1ccc(Oc2ccccc2)cc1` [PHENOXYCARB]: the “Log S” value is recorded as -4.7.

For `CCCO` [PROPANOL], the “Log S” value is given as 0.62.

`c1ccc2[nH]ccc2c1` [INDOLE]: the “Log S” value is -1.21.

In the case of `Cc1ccc(O)cc1` [p-CRESOL], the “Log S” value is listed as -0.73.
